According to patent publication US20080131366A1, “Folate Receptor Gene Modulation For Cancer Diagnosis And Therapy” (priority 2003, published 2008):

How the values were obtained:
[1] = tested on: FR-α promoter; assay: FR-α promoter-luciferase in HeLa cells (endogenous GR); format: cell-based
Procedure: (§1) HeLa cells, which express endogenous GR, were transfected with FR-α promoter-luciferase or GRE2e1b promoter luciferase. […] FIG. 17B: Time course of Dex action. Promoter activity was measured in terms of luciferase activity at the different time points.

[2] = tested on: GRE2e1b promoter
Procedure: as §1

[3] = tested on: FR-α; assay: Endogenous FR-α in AR-transfected HeLa cells, flow cytometry with fluorescein-folic acid conjugate; format: cell-based
Procedure: Where indicated, cells were transfected with AR expression plasmid and the testosterone (10 nM) and TSA (50 mg/ml) treatments were for 3 days post-transfection.

[4] = tested on: FR-α promoter; assay: FR-α promoter-luciferase in T47D cells (endogenous PR and GR); format: cell-based; conditions: TSA 25 ng/ml with R5020
[5] = tested on: FR-α promoter; assay: FR-α promoter-luciferase reporter in HeLa cells co-transfected with ER; format: cell-based
Procedure: (§2) (FIG. 1A) HeLa and IGROV-1 cells (10^6) were co-transfected with the FR-α promoter-luciferase construct (400 ng) and either an ER expression plasmid (25 ng) or with the plasmid vector alone (25 ng) in the presence of 1 nM E2. Antiestrogens were introduced at the time of transfection. […] (FIG. 1B) The FR-α promoter-luciferase construct (400 ng) was transfected into BG-1 cells (10^6) in the absence or in the presence of E2 (1 nM) and antiestrogens were introduced at the time of transfection. (FIG. 1C) HeLa cells (10^6) were transfected with the thymidine kinase (TK)-promoter-luciferase (200 ng) or Rous Sarcoma Virus (RSV)-promoter-luciferase (200 ng) constructs and were co-transfected with either ER plasmid (25 ng) or with the plasmid vector (25 ng). Antiestrogens were introduced at the time of transfection.
FIGS. 2A and 2B are graphs showing an estrogen and antiestrogen dose response of a control ERE-driven promoter and the FR-α promoter in HeLa cells. The Y-axis in FIG. 2A indicates promoter activation, whereas the Y-axis in FIG. 2B indicates promoter repression. The cells (10^6) were transfected with either ERE2E1b-luciferase (100 ng) (FIG. 2A) or FR-α promoter-luciferase (100 ng) (FIG. 2B) and co-transfected with the ER expression plasmid (50 ng) where indicated. Cells that were not co-transfected with the ER-plasmid were co-transfected instead with the plasmid vector alone (50 ng).
FIGS. 3A and 3B are graphs showing a time course of response of the control ERE2E1b-luciferase (FIG. 3A) and FR-α promoter luciferase (FIG. 3B) to antiestrogens in HeLa cells. The cells (10^6) were transfected with the indicated promoter-luciferase construct (100 ng) and co-transfected with ER expression plasmid (50 ng) in the presence of E2 (1 nM).
In one set of experiments, the antiestrogens were removed after a 6 h treatment.
Cell Culture and Transfection: HeLa I-1 cells were kindly provided by Dr. S. T. Rosen. BG-1 cells were provided by Dr. Randolf Ruch. HeLa (American Type Tissue Collection) and HeLa I-1 cells were routinely cultured in phenol red-free MEM supplemented with fetal bovine serum (FBS) (10%), penicillin (100 units/mL), streptomycin ([…]), and L-glutamine (2 mM). BG-1 and IGROV1 (American Type Tissue Collection) cells were routinely cultured in DMEM and supplemented as above. Treated or transfected cells were grown in phenol-red free media supplemented with charcoal-stripped FBS (5% v/v), penicillin (100 units/mL), streptomycin ([…]), L-glutamine (2 mM), insulin (2 μg/mL), and transferrin (40 μg/mL) unless otherwise noted. In addition, treated HeLa I-1 cells were grown in culture with 50 μg/mL G418. […] Uniformity of transfection was routinely monitored through cotransfections with the β-galactosidase expression plasmid, pSV-β-gal (Promega). β-galactosidase activity was measured colorimetrically using the assay system available from Promega.
Luciferase Assay: Forty-eight hours after transfection, the cells were washed once with PBS (10 mM sodium phosphate, pH 7.5, 150 mM NaCl) and harvested in 400 μL of reporter lysis buffer provided with the luciferase assay system (Promega). The samples were centrifuged at 12,000 g for 2 min at room temperature. The supernatant was assayed for luciferase activity in a luminometer (Lumat LB9501, Berthold) using the luciferase substrate from Promega.

[6] = tested on: FR-α promoter; assay: FR-α promoter-luciferase reporter in IGROV-1 cells co-transfected with ER; format: cell-based; conditions: IGROV-1, ER co-transfected, 1 nM E2, pharmacologic concentrations of antiestrogen
Procedure: as §2
Cell Culture and Transfection: HeLa I-1 cells were kindly provided by Dr. S. T. Rosen. BG-1 cells were provided by Dr. Randolf Ruch. […] Uniformity of transfection was routinely monitored through cotransfections with the β-galactosidase expression plasmid, pSV-β-gal (Promega). β-galactosidase activity was measured colorimetrically using the assay system available from Promega. […]

[7] = tested on: FR-α; assay: Induction of endogenous FR-α in ER+/FRα-negative cells; format: cell-based; conditions: ER+/FRα-negative cells including BG-1; results not shown
Text: It appears that ER will only modulate the endogenous FR-α gene in cells in which the gene is transcriptionally active.

[8] = tested on: FR-α; assay: FR-α in HeLa cell tumor xenografts after tamoxifen, western blot; format: in vivo, mouse; conditions: ER+ HeLa cell tumors, tamoxifen 1 mg/kg sc daily
[9] = tested on: FR-α promoter; assay: FR-α promoter-luciferase in HeLa cells transfected with AR; format: cell-based; conditions: 10 nM
Procedure: (§3) FIGS. 10A, 10B, 10C and 10D are graphs showing the enhancement of FR-α promoter activity by testosterone/AR. In HeLa cells, AR was introduced by transiently transfecting an AR expression plasmid. FR-α promoter-luciferase, PSA-promoter-luciferase, or promoterless PGL3 basic-luciferase was co-transfected. Testosterone was introduced at the time of transfection (10 nM in FIGS. 10A, 10C, and 10D) and cells harvested for luciferase assays 48 h post-transfection. […] FIGS. 10C and 10D show AR dose responses for the FR-α and PSA promoters, respectively.
(§4) FIG. 11 is a graph showing the time course of testosterone/AR action on FR-α and PSA promoters. HeLa cells were cotransfected with AR expression plasmid and either FR-α promoter-luciferase or PSA promoter-luciferase. Testosterone (10 nM) was introduced 48 h post-transfection and the cells harvested to assay luciferase activity at the indicated times.

[10] = tested on: PSA promoter; assay: PSA promoter-luciferase in HeLa cells transfected with AR; format: cell-based; conditions: 10 nM, introduced 48 h post-transfection
Procedure: as §3, §4

[11] = tested on: FR (α or β); assay: FR induction by testosterone in FR-negative cell types; format: cell-based; conditions: results not shown
[12] = target: T1, Estrogen receptor alpha (ER) (UniProt P03372 P03372:1-595); assay: EMSA; no ER shift with consensus Sp1; HeLa NE present; conditions: assayed with HeLa nuclear extract; label: 32P
T1 sequence (P03372 whole entry, one chain of several): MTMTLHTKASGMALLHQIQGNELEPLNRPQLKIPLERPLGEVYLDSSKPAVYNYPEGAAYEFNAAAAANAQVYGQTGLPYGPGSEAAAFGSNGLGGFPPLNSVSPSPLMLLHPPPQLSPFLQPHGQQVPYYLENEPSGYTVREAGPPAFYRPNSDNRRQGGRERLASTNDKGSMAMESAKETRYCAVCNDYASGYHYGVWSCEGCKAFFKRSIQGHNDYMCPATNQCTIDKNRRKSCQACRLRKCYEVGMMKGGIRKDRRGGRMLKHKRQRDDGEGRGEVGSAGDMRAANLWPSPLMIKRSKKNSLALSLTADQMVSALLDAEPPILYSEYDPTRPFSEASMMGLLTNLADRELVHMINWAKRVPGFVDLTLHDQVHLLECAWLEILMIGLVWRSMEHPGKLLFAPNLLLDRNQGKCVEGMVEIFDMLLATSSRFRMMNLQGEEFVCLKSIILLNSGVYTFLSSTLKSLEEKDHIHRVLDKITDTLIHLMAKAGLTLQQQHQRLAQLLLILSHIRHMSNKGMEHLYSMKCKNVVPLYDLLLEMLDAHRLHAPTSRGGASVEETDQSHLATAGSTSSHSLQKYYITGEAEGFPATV

[13] = target: T1, Estrogen receptor alpha (ER); assay: EMSA; HeLa NE present; tamoxifen but not ICI 182,780 abolished band; conditions: assayed with HeLa nuclear extract; label: 32P
[14] = target: T1, Estrogen receptor alpha (ER); assay: EMSA; HeLa NE present; E2 increased band, tamoxifen and ICI 182,780 abolished it; 100-fold unlabelled ERE blocked; room temperature, 50 mM KCl, 0.5 mM MgCl2; conditions: assayed with HeLa nuclear extract; label: 32P

Molecule: C[C@@H]1C[C@H]2[C@@H]3CCC4=CC(=O)C=C[C@]4(C)[C@@]3(F)[C@@H](O)C[C@]2(C)[C@@]1(O)C(=O)CO [Dex, dexamethasone]
- concentration of optimal enhancement [1]: 50 nM
- time at which enhancement began [1]: > 48 h
- time at which activation was shown [2]: ≤ 3 h

Molecule: CC(/C=C/C(=O)NO)=C\[C@@H](C)C(=O)c1ccc(N(C)C)cc1 [TSA, trichostatin A]
- further enhancement of the testosterone/AR-dependent increase ([3]; 50 ng/ml TSA with testosterone 10 nM): ~4 fold
- activation of the FR-α promoter by R5020 [4]: greatly potentiated

Molecule: CC/C(=C(\c1ccccc1)c1ccc(OCCN(C)C)cc1)c1ccccc1 [tamoxifen, Tamoxifen]
- derepression of FR-α promoter after 6 h treatment and withdrawal ([5]; 6 h treatment, then compound withdrawn): partially lost
- effect on FR-α promoter (ligand dose response) ([5]; HeLa, ER co-transfected): the repression was counteracted
- FR-α promoter activity after repression by ER ([5]; HeLa, ER co-transfected, 1 nM E2, pharmacologic concentrations of antiestrogen): either partially or completely restored to the uninhibited values
- reporter activity at the end of 48 h post-transfection ([5]; antiestrogen introduced 24 h after co-transfection): a doubling of the reporter activity
- onset of activation of FR-α promoter ([5]; antiestrogen introduced 24 h after transfection): began within hours and progressively increased
- FR-α promoter activity in the absence of ER ([5]; no ER co-transfected, HeLa and IGROV-1, results not shown): did not alter FR-α promoter activity
- FR-α promoter activity after repression by ER [6]: either partially or completely restored to the uninhibited values
- induction of endogenous FR-α expression [7]: In no case did the inventor observe induction
- FR-α expression in tumors [8]: significant increase in FR-α expression

Molecule: C[C@]12CC[C@H]3[C@@H](CCC4=CC(=O)CC[C@@]43C)[C@@H]1CC[C@@H]2O [testosterone]
- FR-α promoter activity [9]: increased the promoter activity
- time at which activation was observed ([9]; introduced 48 h post-transfection): 2 h
- time at which activation was observed [10]: 2 h
- increase in fluorescence of the major peak (endogenous FR) ([3]; 10 nM for 3 days, AR transfected): approximately 7 fold
- induction of FR (α or β) expression [11]: did not induce FR (α or β) expression

B1: consensus Sp1 probe (dsDNA)
DNA 1: ATTCGATCGGGGCGGGGCGAG
DNA 2: CTCGCCCCGCCCCGATCGAAT
- binding result [12]: no binding

B2: consensus ERE probe (dsDNA)
DNA 1: GTCAGGTCACAGTGACCTGA
DNA 2: TCAGGTCACTGTGACCTGAC
- binding result [13]: binds

B3: FR-alpha P4 promoter probe -89 to -50 (dsDNA)
DNA 1: GGAGATGGGGGCAGGGCTCTATCTGCCCCAGGCTTCCGTCC
DNA 2: GGACGGAAGCCTGGGGCAGATAGAGCCCTGCCCCCATCTCC
- binding result [14]: binds
